This is an account of results in patent publication US20230097253A1, “NOVEL QUINAZOLINE COMPOUND AS THERAPEUTIC AGENT FOR METABOLIC DISORDERS” (BIOWAY., INC, priority 2020, published 2023).

The subject of series [1] is steatosis-induced Huh7 cells. The experiment in a line: Protein expression levels (western blot) for MOA confirmation in steatosis-induced liver cells. The conditions noted are these: 250 μM PA, 0.25-40 μM compound, 24 hours, FIG. 1. Format: cell-based. The protocol: An experiment to confirm the expression levels of proteins in steatosis-induced liver cells was conducted as follows.
To determine the protein expression level for MOA confirmation in steatosis-induced liver cells BW-3290 of the present invention, Huh7 cells were cultured in an incubator set at 37° C., 95% humidity, and 5% CO2.
Additionally, Huh7 cells were proliferated to a confluency of 80-90% on a plate using a growth medium (Dulbecco's modified Eagle's medium (DMEM) supplemented with 10% fetal bovine serum (FBS), 100 U/ml of penicillin, and 100 μg/ml of streptomycin), and then used for the experiment.
To induce steatosis in Huh-7 cells in each well except for control cells, the Huh-7 cells were treated with PA bound to 2% BSA at a concentration of 250 μM except for the control, and the control cells were pretreated with 2% BSA without FA.
The cells in each well were treated with the compounds of the present invention, R- or S-form of BW-3290, 0.25 μM, 0.5 μM, 1 μM, 5 μM, 10 μM, 20 μM, and 40 μM and then cultured for 24 hours. The control cells and PA treated cells were treated with DMSO. All media were aspirated and the cells were gently washed 3 times with cold PBS.
A cold lysis buffer containing 150 mM sodium chloride (NaCl), 5 mM ethylenediaminetetraacetic acid (EDTA), pH 8.0, […] 4-(2-hydroxyethyl)-1-piperazineethanesulfonic acid (HEPES), 1% nonylphenoxypolyethoxylethanol (NP-40), 2 μg/mL aprotinin, 1 μM pepstatin A, 10 μM leupeptin, 1 mM sodium fluoride (NaF), 0.2 mM sodium orthovanadate ([…]), and 1 μM phenylmethylsulfonyl fluoride (PMSF) was added thereto.
A whole cell lysate was collected and gently pipetted at least 10 times to ensure complete lysis. The sample was incubated on ice for 20 minutes and centrifuged 4° C. at 13,000 rpm, for 20 minutes. The supernatant was collected, 5× sodium dodecyl sulfate (SDS) sample buffer containing 50 mM Tris-CI (pH 6.8), 2% SDS, 0.1% bromopheol blue, and 10% glycerol was added to the sample, and boiled at 95° C. for 5 minutes.
The wells of 10% SDS-polyacrylamide gel electrophoresis (SDS-PAGE) were loaded with the same amount of a protein along with the molecular weight marker. The gel was electrophoresed at 100 V for 30 minutes in an electrophoresis chamber (Bio-Rad Laboratories, Hercules, Calif., USA).
A polyvinylidene fluoride (PVDF) membrane (MilliporeSigma, Burlington, Mass., USA) was activated with methanol (MeOH) for 1 minute and washed with a transfer buffer containing 25 mM Tris, 190 mM glycine, and 20% MeOH. The gel was placed in the transfer buffer for 10 minutes.
The transfer sandwich (in the order of paper, gel, membrane, and paper) was assembled and it was checked whether no air bubbles were trapped in the transfer sandwich. The transfer sandwich was placed in a transfer tank (Bio-Rad Laboratories) and ice cubes were placed in the transfer tank to prevent the transfer buffer from being heated. The protein was transferred from the gel to the PVDF membrane at 100 V for 30 minutes.
After washing the PVDF membrane with distilled water, the membrane was blocked for 1 hour at room temperature with a blocking buffer prepared by 5% skim milk (Difco Laboratories, Franklin Lakes, N.J., USA) in TBST containing 0.1% tween 20 (TBST, Sigma-Aldrich).
The membrane was incubated in a buffer in which the primary antibody was appropriately diluted. The membrane of fatty acid synthase (FAS), phosphor-AMP-activated protein kinase (p-AMPK), SIRT1, and SIRT3 was washed 3 times with TBST for 5 minutes each.
The membrane was incubated with a recommended dilution of horseradish peroxidase (HRP)-conjugated secondary mouse antibody in blocking buffer at room temperature for 1 hour.
The membrane was washed 5 times with TBST for 5 minutes each. Excess reagent was removed and the membrane was covered with a clear plastic wrap.
ECL prime western blotting detection reagent (GE Healthcare, Chicago, Ill., USA) was applied according to the manufacturer's recommendations. […]

Another series concerns MRC5 cells. As to the kind of experiment: Cytotoxicity in normal cells, CCK8 analysis. The class given is cell-based. The conditions noted are these: 0.5-100 μM, 24 hours, CCK8, compared with the control group, FIG. 2. The procedure: For confirmation of cytotoxicity in normal cells, MRC (i.e., normal lung cells) were cultured in an incubator set at 37° C. with 95% humidity and 5% CO2.
Additionally, MRC5 cells were proliferated to a confluency of 70-80% on a plate using a growth medium (Minimum Essential Medium (MEM) supplemented with 10% fetal bovine serum (FBS), 100 U/ml of penicillin, and 100 μg/ml of streptomycin), and then used for the experiment.
In order to confirm the cytotoxicity of the compound according to an embodiment of the present invention, CCK8 analysis was performed for the prepared MRC5 cells.
First, after culturing MRC5 cells to 70-80% confluency in a 24-well plate, the test material was diluted in a culture medium except for the control group and treated with 0.5 μM, 2.5 μM, 10 μM, 20 μM, 40 μM, 80 μM, and 100 μM.
After 24 hours of treatment of the test material, CCK8 solution was dispensed 10 μL per well and incubated for 2 hours in a state where the light was blocked.
After 2 hours, 200 μL of the culture solution from each well was transferred to a 96 well plate and absorbance was measured at 450 nm.

As to `CC(C)[C@@H](Nc1ncnc2nc[nH]c12)c1nc2cccc(Cl)c2c(=O)n1-c1ccccc1` [R-form of BW-3290, (R)-2-(1-((7H-purin-6-yl)amino)-2-methylpropyl)-5-chloro-3-phenylquinazolin-4(3H)-one], in series [1], the “SIRT1 protein expression level” value is reported as “increased”, the “SIRT3 protein expression level” value is “increased”, the “level of FAS (fat synthesis protein)” value is “decreased in a concentration-dependent manner” and the “p-AMPK protein expression level” value is reported as “increased”. The “cytotoxicity in normal cells” value in the series with MRC5 cells is “did not show toxicity”.
For `CC(C)[C@H](Nc1ncnc2nc[nH]c12)c1nc2cccc(Cl)c2c(=O)n1-c1ccccc1` [S-form, (S)-2-(1-((7H-purin-6-yl)amino)-2-methylpropyl)-5-chloro-3-phenylquinazolin-4(3H)-one], in series [1], the “SIRT1 protein expression level” value is “increased”, the “SIRT3 protein expression level” value is recorded as “increased” and the “p-AMPK protein expression level” value is on record as “increased”. Moreover, the “cytotoxicity in normal cells” value in the series with MRC5 cells was “showed some toxicity”.
`CC(C)C(Nc1ncnc2nc[nH]c12)c1nc2cccc(Cl)c2c(=O)n1-c1ccccc1` (racemic) [RS-form, 2-(1-((7H-purin-6-yl)amino)-2-methylpropyl)-5-chloro-3-phenylquinazolin-4(3H)-one]: the “cytotoxicity in normal cells” value in the series on MRC5 cells was “showed some toxicity”.
